From PubChem BioAssay AID1645865 (Buhrlage Lab, Dana-Farber Cancer Institute and Novartis …, 2021)
pIC50: −log10 of the molar value. The source made the active and inactive calls.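 Rule for the calls: active = maximal inhibition of the USP30 enzyme reaching 30% or more across the dose series; inactive = the rest.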

Each molecule was assayed against Ubiquitin carboxyl-terminal hydrolase 30 (Homo sapiens) (UniProt Q70CQ3) (assay: inhibitors of ubiquitin-specific protease 30 deubiquitylating enzyme, concentration dependence, in vitro biochemical, validation of primary hits (AID 1645865)). Settings: purified USP30, Ub-rhodamine cleavage, fluorescence, 2 h.
Ubiquitin carboxyl-terminal hydrolase 30 (Homo sapiens), sequence (Q70CQ3 whole entry, looked up): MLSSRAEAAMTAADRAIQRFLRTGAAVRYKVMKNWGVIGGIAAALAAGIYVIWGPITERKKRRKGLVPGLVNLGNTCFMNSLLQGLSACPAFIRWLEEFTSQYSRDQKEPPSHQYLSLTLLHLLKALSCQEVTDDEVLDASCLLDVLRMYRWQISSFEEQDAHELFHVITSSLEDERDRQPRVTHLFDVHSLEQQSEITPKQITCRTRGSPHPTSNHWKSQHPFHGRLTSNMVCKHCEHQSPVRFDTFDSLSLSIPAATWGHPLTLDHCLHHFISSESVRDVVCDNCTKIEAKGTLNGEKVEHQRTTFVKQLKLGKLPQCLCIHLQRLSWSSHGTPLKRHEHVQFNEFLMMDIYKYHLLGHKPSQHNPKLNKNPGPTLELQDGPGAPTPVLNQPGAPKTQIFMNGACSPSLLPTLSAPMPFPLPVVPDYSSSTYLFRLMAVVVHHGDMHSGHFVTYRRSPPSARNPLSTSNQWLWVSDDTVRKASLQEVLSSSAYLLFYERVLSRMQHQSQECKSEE

pIC50 | IC50 | Structure (SMILES)
4.51 | – | CC1=C(C(=O)Nc2ccccc2C)C(c2ccc(OCc3ccccc3F)cc2)n2ncnc2N1 (configuration not stated)
4.59 | – | COc1cnc(-c2ccccn2)nc1Sc1ccc(C)cc1
– | > 50 µM (inactive) | CCOc1ccccc1NC(=O)COc1cc(OC)ccc1C(=O)c1ccccc1
– | > 50 µM (inactive) | CC(=O)N1CCc2cc(CNC(=O)Nc3cc(C)ccc3C)ccc21
5.60 | – | COc1ccc(-c2nc(Cn3nnc(C(=O)Nc4ccc(C)c(C)c4)c3N)c(C)o2)cc1
5.61 | – | O=C(Nc1nc2c(ccc3ccccc32)s1)c1cccc(Br)c1
– | > 50 µM (inactive) | c1ccc2c(c1)ccc1nnc(-c3ccc4c(c3)OCO4)n12
– | > 50 µM (inactive) | COc1ccc(C(=O)Nc2ccc3c(c2)Sc2ncccc2C(=O)N3C)cn1
4.34 | – | COc1ccc(-c2ocnc2C(=O)Nc2cccc(Cl)c2C)cc1OC
– | > 50 µM (inactive) | COc1ccccc1/C=C/C(=O)Nc1nc2n(n1)C(c1ccc(Cl)cc1)CC(=O)N2 (configuration not stated)
6.96 | – | Cn1c2ccccc2c(=O)c2c(=O)n(Cc3ccccc3)c(-c3ccccc3F)nc21
5.31 | – | c1csc(-c2nc(Nc3ccc4c(c3)CCC4)c3ccccc3n2)c1
– | > 50 µM (inactive) | CCCc1nc2sc3c(N(CC)CC)ncnc3c2c2c1CCC2
5.02 | – | Cc1nc2ccc(NC(=O)COc3ccccc3[N+](=O)[O-])cc2s1
– | > 50 µM (inactive) | COc1cccc(N2CCN(C(=O)c3cc(NC(C)=O)cc4nc(C)ccc34)CC2)c1
4.64 | – | COc1cccc(NC(=O)Cc2sc(Nc3cc(C)cc(C)c3)nc2O)c1
4.43 | – | CCCCN(C)C(=O)c1cc2c(=O)n3cccc(C)c3nc2n1Cc1ccccc1
– | > 50 µM (inactive) | COc1cc(Cl)ccc1Oc1ncnc2sc(C)c(C)c12
– | > 50 µM (inactive) | COc1cc(NC(=O)c2cc(CN3CCOCC3)on2)cc(OC)c1
– | > 50 µM (inactive) | COC(=O)c1ccc(Cn2cnc3ccc(F)cc3c2=O)o1
– | > 50 µM (inactive) | O=C(COC(=O)c1ccc2ncsc2c1)Nc1ccccc1F
– | > 50 µM (inactive) | O=C(CN1C(=O)COc2ccc(Cl)cc21)Nc1cccc2ncccc12
– | > 50 µM (inactive) | O=C(Nc1nnc2n1CCCS2)c1cccc(Cl)c1
– | > 50 µM (inactive) | Cc1ccc(C(=O)Nc2cc3c4c(c2)CC(=O)N4CCC3)cc1
4.38 | – | COc1ccc(OC)c(NC(=O)CS(=O)(=O)c2cn(CC(=O)N3CCC(C)CC3)c3ccccc23)c1
– | > 50 µM (inactive) | Cc1cc(C(F)(F)F)n2nc(C3CCN(C(=O)c4cnn(C)c4C)C3)cc2n1 (configuration not stated)

Second part, the molecule before the results:

Structure (SMILES) | pIC50 | IC50
CN1CCN(C(=O)c2cc(-c3ccn(-c4ccccc4)n3)n3ccccc23)CC1 | – | > 50 µM (inactive)
O=C(COc1cccc(-n2cnnn2)c1)Nc1ccc2c(c1)OCCO2 | – | > 50 µM (inactive)
O=C(NC(Cc1ccccc1)c1nc2ccccc2[nH]1)c1ccccn1 (configuration not stated) | – | > 50 µM (inactive)
CC1(C)CC(n2[nH]c(=O)c3c2NC(=O)CSC3c2ccc(OCc3ccccc3)cc2)CCO1 (configuration not stated) | 4.92 | –
Cc1ccc(C(=O)NCc2ccc(C(=O)Nc3cccc(C)c3)o2)cc1 | 4.57 | –
CS(=O)(=O)NC1CCCN(C(=O)Nc2cccc3ccccc23)C1 (configuration not stated) | – | > 50 µM (inactive)
CC(=O)[C@H]1c2c(c(O)c3c(O)cccc3c2-c2c3c(c(O)c4c(O)cccc24)C(=O)C[C@](C)(O)[C@H]3C(C)=O)C(=O)C[C@]1(C)O | – | > 50 µM (inactive)
COc1ccc(NC(=O)C2[C@@H]3C(=O)N(C4CCCCC4)C(=O)[C@@H]3[C@H]3c4ccccc4C=CN23)cc1 (some centres not stated) | – | > 50 µM (inactive)
NC(=O)C1(N2CCCCC2)CCN(C(=O)c2[nH]nc3c2CCc2ccccc2-3)CC1 | – | > 50 µM (inactive)
COc1cccc(N2CCN(C(=O)Nc3ccc4c(c3)NC(=O)CO4)CC2)c1 | 4.66 | –
Cc1ccccc1Cn1ccc2ccn(Cc3cccnc3)c2c1=O | – | > 50 µM (inactive)
C=C(NC(=O)C(=C)NC(=O)c1csc(C2=N[C@@H]3c4csc(n4)[C@H]4NC(=O)c5csc(n5)[C@H]([C@](C)(O)[C@@H](C)O)NC(=O)C5CSC(=N5)/C(=C/C)NC(=O)C([C@@H](C)O)NC(=O)c5csc(n5)[C@]3(CC2)NC(=O)[C@H](C)NC(=O)C(=C)NC(=O)[C@H](C)NC(=O)C([C@@H](C)CC)NC2C=Cc3c(C(C)O)cc(nc3[C@H]2O)C(=O)OC4C)n1)C(N)=O (some centres not stated) | – | > 50 µM (inactive)
O=C(NCCCN1CCc2ccccc2C1)c1cc2c(s1)CS(=O)(=O)C2 | – | > 50 µM (inactive)
Nc1c(C(=O)NCCc2ccccc2)nnn1-c1ccc(F)cc1 | 4.51 | –
O=C(c1cccnc1)N1CCC2(CC1)CC1(CO2)Nc2ccccc2-n2cccc21 (configuration not stated) | – | > 50 µM (inactive)
COc1cccc(NC(=O)C2Cc3ccccc3N2C(=O)c2ccccc2)c1 (configuration not stated) | 4.65 | –
CC1OC(CC(=O)O)CC23OC12C(=O)c1c(O)cccc1C3=O (configuration not stated) | – | > 50 µM (inactive)
Cn1c(=O)[nH]c(=O)c2c1nc1n(CCc3ccccc3)c(-c3ccccc3)cn21 | 4.43 | –
C=C[C@]1(C)C=C2C(=O)[C@]3(O)OC(=O)[C@@]4(CCCC(C)(C)[C@H]34)[C@@]2(O)CC1 | 4.56 | –
N#Cc1ccc(-c2ccc(OCC(=O)Nc3ccc4c(c3)OCO4)cc2)cc1 | 5.41 | –
O=C(c1cscn1)N1CCC2(CC1)CC1(CO2)Nc2ccccc2-n2cccc21 (configuration not stated) | – | > 50 µM (inactive)
